Data set [1] concerns A549. In kind it is cell-based. The settings on record: 48 hour incubation, unit not given (tested from 100 μM); for GI50: read-out: GI50 (dose inhibiting 50% cell growth); for CC50: read-out: LC50 (dose killing 50% of initially seeded cells). As for the experimental part: (§1) Anticancer activity tests were made on colon (HCT116, HT29, HCT15), lung (A549, H460) and ovarian (OVCARS, OVCAR3, NCI-ADRRES) cancer cell lines in vitro. All cell lines were obtained from American Type Culture Collection (Manassas, Va., USA) or American National Cancer Institute (NCl, USA). All cell lines were grown in RPMI1640 medium supplemented with 25 mM HEPES, 2 mM L-Glutamine, 5-10% fetal calf serum and antibiotics at 37° C. in a humidified 5% CO2 atmosphere.
(§2) The effect of the aforementioned compound on the selected cell lines indicated above was tested with Sulforhodamine B (SRB) assay that is also used by American National Cancer Institute. 100 μL of cancer cells were seeded at densities between 5.000-40.000 per well of a 96 well plate. The cells were incubated for 24 h for adaptation. […] The tested complex was dissolved in DMSO at 100 μM initial concentration and diluted to obtain 10 different concentrations as 1:2, 1:4 or 1:10. Every different concentration was analyzed in triplicates and in two independent experiments. The cells were fixed with 50% (w/v) ice-cold TCA in situ after 48 hour incubation. SRB dye bound to the cells was dissolved by unbuffered 10 mM Tris solution and absorbance values were measured at 530 nm in an ELISA microplate reader. Percentages for cell growth that were calculated from absorbance measurements (initial: TZ, control: C, complex at different concentrations: Ti) are as described below:
(§3) Gl50 (dose inhibiting 50% cell growth)=[Ti−Tz)/(C-Tz)]×100=50
(§4) TGI (total growth inhibition): Ti=Tz
(§5) LC50 (dose killing 50% of initially seeded cells)=[(Ti−Tz)/Tz]×100=−50

Data set [2] concerns H460. In kind it is cell-based. The settings on record: 48 hour incubation, unit not given (tested from 100 μM); for GI50: read-out: GI50 (dose inhibiting 50% cell growth); for CC50: read-out: LC50 (dose killing 50% of initially seeded cells). As for the experimental part: as §1, §2, §3, §4, §5
In data set [3] the test system is HCT116. In kind it is cell-based. As to conditions: for TGI (total growth inhibition) / GI50 / CC50: 48 hour incubation, unit not given (tested from 100 μM); for GI50: read-out: GI50 (dose inhibiting 50% cell growth); for CC50: read-out: LC50 (dose killing 50% of initially seeded cells). On the procedure: as §1, §2, §3, §4, §5
Data set [4] deals with HCT15. In kind it is cell-based. The settings on record: for TGI (total growth inhibition) / GI50 / CC50: 48 hour incubation, unit not given (tested from 100 μM); for GI50: read-out: GI50 (dose inhibiting 50% cell growth); for CC50: read-out: LC50 (dose killing 50% of initially seeded cells). As for the experimental part: as §1, §2, §3, §4, §5
In data set [5] the test system is HT29. In kind it is cell-based. As to conditions: for TGI (total growth inhibition) / GI50 / CC50: 48 hour incubation, unit not given (tested from 100 μM); for GI50: read-out: GI50 (dose inhibiting 50% cell growth); for CC50: read-out: LC50 (dose killing 50% of initially seeded cells). On the procedure: as §1, §2, §3, §4, §5
Data set [6] has as its system NCI-ADRRES. It is filed as cell-based. The settings on record: 48 hour incubation, unit not given (tested from 100 μM); for GI50: read-out: GI50 (dose inhibiting 50% cell growth); for CC50: read-out: LC50 (dose killing 50% of initially seeded cells). As for the experimental part:
as §1, §2, §3, §4, §5

Data set [7] relates to OVCAR3. In kind it is cell-based. The settings on record: 48 hour incubation, unit not given (tested from 100 μM); for GI50: read-out: GI50 (dose inhibiting 50% cell growth). On the procedure: as §1, §2, §3, §4, §5
Data set [8] relates to OVCAR5. In kind it is cell-based. As to conditions: 48 hour incubation, unit not given (tested from 100 μM); for GI50: read-out: GI50 (dose inhibiting 50% cell growth); for CC50: read-out: LC50 (dose killing 50% of initially seeded cells). As for the experimental part:
as §1, §2, §3, §4, §5

Data set [9] has as its system A549 cells. The settings on record: cited from earlier work.
The test system of data set [10] is HCT116 cancer cells. The data set is described as follows: HCT116 xenograft study in NOD/SCID mice. It is filed as in vivo. More on the design: key to tumor size: tumor volume in mm^3, (a×b²)/2 from caliper length and width. The settings on record: for tumor size / ΔT/ΔC % value: HCT116 xenograft, complex 40 mg/kg, oxaliplatin 5 mg/kg; for tumor size: no unit in table (method gives tumor volume in mm^3); for ΔT/ΔC % value: day 22, highly active compounds have values less than 42%. On the procedure:
Xenograft studies were made by using HCT116 colon cancer cell lines after observing that the subject of the invention, palladium(II) complex, is especially effective on colon cancer cells. […] To obtain the xenografts, approximately 10^6 cells from exponentially growing HCT116 cells were intradermally injected in the axillae of 6-8 weeks old NOD/SCID mice by using the English double sided trocar implantation method. Two separate injections were made to each mouse. Two tumor inocula were added to each mouse in order to produce one tumor load for each mouse. […] These positive effects are the beneficial aspects of the English system.
Treatment was started in randomly chosen animal groups when the tumor volume reached 100-200 mm^3. […] The treatment was performed in 5 days of application and 2 days of resting periods. Tumor volume was calculated from [(axb^2)/2] formula. In this formula, a and b are tumor length and width which are measured by vernier caliper. Measurements were repeated twice weekly. Treated animals received a single dose from the drugs. Apart from tumor volume, ΔT/ΔC % values were calculated from ΔT═T−D0 and ΔC═C−D0 equations. D0 is the mean tumor volume at the beginning of the treatment, T is the mean tumor volume of treated mice and C is the mean tumor volume of untreated (not injected with complex) mice which is used as a control. […] Weight loss, neurological disorders and changes in diet were recorded as indication of toxicity (side effects). The experiments were terminated when the tumor volume reached approximately to 1000-1500 mm^3.

[11] abbreviates: Day 19 (value equal in all groups, start of treatment).
Setting [12] is: versus cisplatin, oxaliplatin and carboplatin.

For `N.N.[Cl][Pt][Cl]` [Cisplatin, cisplatin], the “TGI (total growth inhibition)” value is reported as 55.1 in data set [1]; 50.3 in data set [2]; 90.2 in data set [3]; 85.9 in data set [4]; 92.0 in [5]; over 100 in [6]. Further, the “TGI (total growth inhibition)” value in data set [7] and in data set [8] was over 100 in each case. For the same compound, the GI50 in [1] is 6.6 µM; in data set [2] it was 8.9 µM; in [3], 24.8 µM; in [4], 57.3 µM; in [5], 29.8 µM; in data set [6] it was 9.9 µM. Further, the GI50 is 34.3 µM in data set [7] and 57.8 µM in data set [8].
For `O.O.O=C1[N-]S(=O)(=O)c2ccccc21.[Cl][Pd-2]12[n+]3ccccc3C[NH+]1Cc1cccc[n+]12` [[Pd(bpma)Cl](sac)·2H2O], in data set [9], the cytotoxic effect entry is given as “showed a cytotoxic effect on A549 cells, similar to cisplatin”.
As to `O=C1[O][Pt]2([NH][C@@H]3CCCC[C@H]3[NH]2)[O]C1=O` [Oxaliplatin, oxaliplatin], the “TGI (total growth inhibition)” value in [1] is on record as 58.2; in data set [2], 95.6; in data set [3], 64.1; in data set [4], 17.2; in data set [5], 56.5; in data set [6], over 100. Further, the “TGI (total growth inhibition)” value in data set [7] and in data set [8] was over 100 each time. Also, the GI50 was 4.4 µM in data set [1]; 6.8 µM in data set [2]; 0.9 µM in data set [3]; 6 µM in data set [4]; 6.3 µM in [5]; 24.8 µM in data set [6]. Also, the GI50 amounted to 9.1 µM in data set [7] and 50.7 µM in data set [8]. Moreover, the tumor size in [10] (setting [11]) is listed as 245.96; in data set [10] (Day 22), 361.82 ± 153.96; in data set [10] (Day 26) it was 538.00 ± 203.51; in [10] (Day 29), 622.29 ± 152.76; in data set [10] (Day 33) it was 847.06 ± 176.45. Besides, the ΔT/ΔC % value result in data set [10] is reported as “+70.60%”.
Regarding `N.N.O=C([O-])C1(C(=O)[O-])CCC1.[Pt+2]` [Carboplatin, carboplatin], the “TGI (total growth inhibition)” value in data set [1], in [2], in data set [3], in [4], in data set [5] and in [6] was over 100 throughout. In addition, the “TGI (total growth inhibition)” value in data set [7] and in data set [8] was over 100 in each case. Also, the concentration for 50% growth inhibition (GI50) in [1], in data set [2], in data set [3], in data set [4], in data set [5] and in data set [6] was over 100 µM each time. The 50% growth inhibitory concentration (GI50) in data set [7] and in data set [8] was over 100 µM throughout. Also, the CC50 in data set [1], in data set [2], in data set [3], in data set [4], in [5] and in data set [6] was over 100 µM in each case. For the same compound, the CC50 in data set [8] is over 100 µM.
`CCC1(CC)C(=O)NC(=O)[N]([Pd-2]23[n+]4ccccc4C[NH+]2Cc2cccc[n+]23)C1=O.O.[Cl-]` [[Pd(bpma)(barb)]Cl•H2O, [Pd(bpma)(barb)]Cl·H2O]: the “TGI (total growth inhibition)” value amounted to 80.1 in [1]; 75.9 in [2]; 9.1 in data set [3]; 9.9 in [4]; 6.6 in data set [5]; 10.0 in [6]. Also, the “TGI (total growth inhibition)” value came out at 25.2 in [7] and 63.5 in data set [8]. For the same compound, the GI50 in data set [1] was found to be 43.1 µM; in data set [2], 44.4 µM; in data set [3], 4.9 µM; in [4] it was 6.8 µM; in data set [5], 3 µM; in data set [6], 5.6 µM. The results for the GI50 in data set [7] and in data set [8] were 6.5 µM and 40 µM, respectively. Moreover, the CC50 in [1] is over 100 µM; in data set [2], over 100 µM; in [3], 82.4 µM; in data set [4] it was 89.1 µM; in data set [5] it was 22 µM; in [6], over 100 µM. Besides, the CC50 in [8] came out at 87 µM. In addition, the “cytotoxic effect compared to anticancer drugs” value in [3] (setting [12]), in [4] (setting [12]) and in data set [5] (setting [12]) was “selectively effective” throughout. For the same compound, the tumor size in [10] (setting [11]) stood at 245.96; in [10] (Day 22) it was 195.61 ± 151.45; in data set [10] (Day 26), 373.88 ± 157.42; in data set [10] (Day 29) it was 577.38 ± 157.37; in data set [10] (Day 33) it was 782.22 ± 228.55. Also, the “decrease of tumor volume compared to oxaliplatin” value in data set [10] (all time points of measurement, complex 40 mg/kg vs oxaliplatin 5 mg/kg) was “decreased the tumor volume more effectively than oxaliplatin in all time points of measurement”. Besides, the ΔT/ΔC % value in data set [10] is −29.88%.

Usually GI50 stands for the concentration giving 50% growth inhibition.
